Counter-ions that a name gives are not always drawn. Like-named read-outs stand apart in the source and are kept apart here.
Assays:
[1] = system: acetic acid-induced writhing in ddy mice; experiment: animal or person; format: in vivo, 5 week old ddy mice; details: for ED50: s.c. 15 minutes before acetic acid
Method: 5 week old ddy mice were used in this test. After intraperitoneal administration of 0.1 ml of 0.6% aqueous acetic acid per 10 g of body weight, the number of writhing reactions that occurred in 10 minutes starting 10 minutes after administration was evaluated for the indicator. The test drug was administered subcutaneously into the backs of the animals 15 minutes before administration of acetic acid.

[2] = Diuretic action (urine output for 5 hours after physiological saline loading in rats); format: in vivo, male Wistar rats; details: for ED (200% urine output) / ED (500% urine output): Rattus norvegicus, sc, 5 hours after saline 20 ml/kg p.o.; for ED (200% urine output): dose giving urine output of 200 (non-dosed group = 100); for ED (500% urine output): dose giving urine output of 500 (non-dosed group = 100)
Method: 7-8 week old male Wistar rats were used in this test after prohibiting from drinking water for 1 hour before the start of testing. After discharging any urine accumulated in the bladder by gently stimulating the lower abdomens of the animals, the drug was administered subcutaneously. After 30 minutes, the animals were then forcibly given 20 ml/kg of physiological saline orally. The animals were placed in metabolic cages immediately after administration of the drug (2 animals/cage) and urine output for 5 hours after loading with physiological saline was measured. Drug efficacy was expressed in the form of those doses resulting in urine outputs of 200 and 500, respectively, when the urine output of a non-dosed group was taken to be 100. Those doses were expressed as the ED200 and ED500 values, respectively.

[3] = Mus musculus, sc, read-out: ED50

SMILES	ED50 [1, 3]	other results
CN(C(=O)Cc1cccc(F)c1)[C@H]1CC[C@@]2(O)[C@H]3Cc4ccc(O)c5c4[C@@]2(CCN3CC2CC2)[C@H]1O5 [Compound 37, 17-cyclopropylmethyl-3,14β-dihydroxy-4,5α-epoxy-6α-(N-methyl-3-fluorophenylacetamido)morphinan.cndot.hydrochloride]	0.0041 mg/kg	ED (200% urine output) [2]: 0.365 mg/kg
C/C=C/C=C/C(=O)N(C)[C@@H]1CC[C@@]2(O)[C@H]3Cc4ccc(O)c5c4[C@@]2(CCN3CC2CC2)[C@H]1O5 [Compound 178, 17-cyclopropylmethyl-3,14β-dihydroxy-4,5α-epoxy-6β-(N-methyl-trans,trans-2,4-hexadienoylamido)morphinan tartrate]	0.0016 mg/kg	analgesic activity ([1]; s.c., in words): particularly strong analgesic activity; ED (200% urine output) [2]: 0.00094 mg/kg; ED (500% urine output) [2]: 0.0045 mg/kg; Diuretic action (in words) ([2]; s.c., from ED200 values): extremely strong diuretic action
CN(C(=O)c1ccc(Cl)c(Cl)c1)[C@H]1CC[C@@]2(O)[C@H]3Cc4ccc(O)c5c4[C@@]2(CCN3CC2CC2)[C@H]1O5 [Compound 27, 17-cyclopropylmethyl-3,14β-dihydroxy-4,5α-epoxy-6α-(N-methyl-3,4-dichlorobenzamido)morphinan.cndot.hydrochloride]	0.046 mg/kg	ED (200% urine output) [2]: 0.0248 mg/kg; ED (500% urine output) [2]: 2.08 mg/kg
CN(C(=O)/C=C/c1cccnc1)[C@@H]1CC[C@@]2(O)[C@H]3Cc4ccc(O)c5c4[C@@]2(CCN3CC2CC2)[C@H]1O5.O=C(O)C(O)C(O)C(=O)O (relative stereo) [Compound 153, 17-cyclopropylmethyl-3,14β-dihydroxy-4,5α-epoxy-6β-[N-methyl-trans-3-(3-pyridyl)acrylamido]morphinan tartrate]	0.13 mg/kg	
CC(=O)Oc1ccc2c3c1O[C@H]1[C@@H](N(C)C(=O)Cc4ccc(Cl)c(Cl)c4)CC[C@@]4(O)[C@@H](C2)N(CC2CC2)CC[C@]314 [Compound 139, 17-Cyclopropylmethyl-3-acetoxy-4,5α-epoxy-14β-hydroxy-6α-(N-methyl-3,4-dichlorophenylacetamido)morphinan.cndot.hydrochloride]	0.04 mg/kg	
CN(C(=O)CCC1CCCC1)[C@@H]1CC[C@@]2(O)[C@H]3Cc4ccc(O)c5c4[C@@]2(CCN3CC2CC2)[C@H]1O5 [Compound 64, 17-cyclopropylmethyl-3,14β-dihydroxy-4,5α-epoxy-6β-(N-methyl-3-cyclopentylpropionamido)morphinan.cndot.tartrate]	0.097 mg/kg	
COCCOC(=O)N(C)[C@H]1CC[C@@]2(O)[C@H]3Cc4ccc(O)c5c4[C@@]2(CCN3CC2CC2)[C@H]1O5 [Compound 49, 17-cyclopropylmethyl-4,5α-epoxy-3,14β-dihydroxy-6α-(N-methyl-2-methoxyethoxycarbamido)morphinan.cndot.tartrate]	0.026 mg/kg	
CO[C@H](C(=O)N(C)[C@H]1CC[C@@]2(O)[C@H]3Cc4ccc(O)c5c4[C@@]2(CCN3CC2CC2)[C@H]1O5)c1ccccc1 [Compound 31, 17-cyclopropylmethyl-3,14β-dihydroxy-4,5α-epoxy-6α-[(S)-N-methylmethoxyphenylacetamido]morphinan.cndot.hydrochloride]	0.75 mg/kg	
Cc1ccc(/C=C/C(=O)N(C)[C@@H]2CC[C@@]3(O)[C@H]4Cc5ccc(O)c6c5[C@@]3(CCN4CC3CC3)[C@H]2O6)cc1 [Compound 155, 17-cyclopropylmethyl-3,14β-dihydroxy-4,5α-epoxy-6β-(N-methyl-4-methylcinnamamido)morphinan hydrochloride]	0.012 mg/kg	
C/C(=C\C(=O)N(C)[C@@H]1CC[C@@]2(O)[C@H]3Cc4ccc(O)c5c4[C@@]2(CCN3CC2CC2)[C@H]1O5)c1ccccc1 [Compound 162, 17-cyclopropylmethyl-3,14β-dihydroxy-4,5α-epoxy-6β-(N-methyl-γ-methylcinnamamido)morphinan tartrate]	0.018 mg/kg	
CN(C(=O)Cc1cccc(Br)c1)[C@H]1CC[C@@]2(O)[C@H]3Cc4ccc(O)c5c4[C@@]2(CCN3CC2CC2)[C@H]1O5 [Compound 26, 17-cyclopropylmethyl-3,14β-dihydroxy-4,5α-epoxy-6α-(N-methyl-3-bromophenylacetamido)morphinan.cndot.hydrobromate]	0.099 mg/kg	
CN(C(=O)/C=C\c1ccoc1)[C@@H]1CC[C@@]2(O)[C@H]3Cc4ccc(O)c5c4[C@@]2(CCN3CC2CC2)[C@H]1O5.O=C(O)C(O)C(O)C(=O)O (relative stereo) [Compound 174, 17-cyclopropylmethyl-3,14β-dihydroxy-4,5α-epoxy-6β-[N-methyl-cis-3-(3-furyl)acrylamido]morphinan tartrate]	0.16 mg/kg	
CN(C(=O)CCCCCc1ccccc1)[C@@H]1CC[C@@]2(O)[C@H]3Cc4ccc(O)c5c4[C@@]2(CCN3CC2CC2)[C@H]1O5 [Compound 202, 17-cyclopropylmethyl-3,14β-dihydroxy-4,5α-epoxy-6β-(N-methyl-6-phenylhexanoamido)morphinan hydrochloride]	0.083 mg/kg	
CN(C(=O)COc1c(Cl)cc(Cl)cc1Cl)[C@@H]1CC[C@@]2(O)[C@H]3Cc4ccc(O)c5c4[C@@]2(CCN3CC2CC2)[C@H]1O5.Cl [Compound 199, 17-cyclopropylmethyl-3,14β-dihydroxy-4,5α-epoxy-6β-(N-methyl-2,4,6-trichlorophenoxyacetamido)morphinan hydrochloride]	0.017 mg/kg	
CN(C(=O)Cc1ccc([N+](=O)[O-])cc1)[C@H]1CC[C@@]2(O)[C@H]3Cc4ccc(O)c5c4[C@@]2(CCN3CC2CC2)[C@H]1O5 [Compound 87, 17-cyclopropylmethyl-3,14β-dihydroxy-4,5α-epoxy-6α-(N-methyl-4-nitrophenylacetamido)morphinan.cndot.hydrochloride]	0.027 mg/kg	
CN(C(=O)/C=C/c1ccsc1)[C@@H]1CC[C@@]2(O)[C@H]3Cc4ccc(O)c5c4[C@@]2(CCN3CC2CC2)[C@H]1O5 [Compound 71, 17-cyclopropylmethyl-3,14β-dihydroxy-4,5α-epoxy-6β-[N-methyl-trans-3-(3-thienyl)acrylamido]morphinan.cndot.methanesulfonate]	0.0042 mg/kg	
CN(C(=O)/C=C/c1ccoc1)[C@@H]1CC[C@@]2(O)[C@H]3Cc4cccc5c4[C@@]2(CCN3CC2CC2)[C@H]1O5 [Compound 204, 17-cyclopropylmethyl-4,5α-epoxy-14-hydroxy-6β-[N-methyl-trans-3-(3-furan)acrylamido]morphinan hydrochloride]	0.013 mg/kg	
CN(C(=O)NCc1ccccc1)[C@H]1CC[C@@]2(O)[C@H]3Cc4ccc(O)c5c4[C@@]2(CCN3CC2CC2)[C@H]1O5 [Compound 132, 17-Cyclopropylmethyl-3,14β-dihydroxy-4,5α-epoxy-6α-(N-methyl-N'-benzylureido)morphinan.cndot.tartrate]	0.073 mg/kg	
CN(C(=S)NCc1ccccc1)[C@@H]1CC[C@@]2(O)[C@H]3Cc4ccc(O)c5c4[C@@]2(CCN3CC2CC2)[C@H]1O5 [Compound 134, 17-cyclopropylmethyl-3,14β-dihydroxy-4,5α-epoxy-6β-(N-methyl-N'-benzylthioureido)morphinan.cndot.tartrate]	0.15 mg/kg	
Cc1ccc(/C=C/C(=O)N(C)[C@@H]2CC[C@@]3(O)[C@H]4Cc5ccc(O)c6c5[C@@]3(CCN4CC3CC3)[C@H]2O6)s1.O=C(O)C(O)C(O)C(=O)O (relative stereo) [Compound 160, 17-cyclopropylmethyl-3,14β-dihydroxy-4,5α-epoxy-6β-[N-methyl-trans-3-(5-methyl-2-thienyl)acrylamido]morphinan tartrate]		ED50 [1]: 0.0027 mg/kg
CN(C(=O)/C=C/c1ccccc1C(F)(F)F)[C@@H]1CC[C@@]2(O)[C@H]3Cc4ccc(O)c5c4[C@@]2(CCN3CC2CC2)[C@H]1O5 [Compound 72, 17-cyclopropylmethyl-3,14β-dihydroxy-4,5α-epoxy-6β-(N-methyl-2-trifluoromethylcinnamamido)morphinan.cndot.hydrochloride]	0.18 mg/kg	
CN(C(=O)CCC1CCCC1)[C@H]1CC[C@@]2(O)[C@H]3Cc4ccc(O)c5c4[C@@]2(CCN3CC2CC2)[C@H]1O5 [Compound 48, 17-cyclopropylmethyl-4,5α-epoxy-3,14β-dihydroxy-6α-(N-methyl-3-cyclopentylpropionamido)morphinan.cndot.tartrate]	0.019 mg/kg	
CN(C(=O)Cc1ccc(N)cc1)[C@H]1CC[C@@]2(O)[C@H]3Cc4ccc(O)c5c4[C@@]2(CCN3CC2CC2)[C@H]1O5 [Compound 137, 17-cyclopropylmethyl-3,14β-dihydroxy-4,5α-epoxy-6α-(N-methyl-4-aminophenylacetamido)morphinanan.cndot.1.6 hydrochloride]	0.17 mg/kg	
CN(C(=O)C#Cc1ccoc1)[C@H]1CC[C@@]2(O)[C@H]3Cc4ccc(O)c5c4[C@@]2(CCN3CC2CC2)[C@H]1O5.O=C(O)C(O)C(O)C(=O)O [Compound 188, 17-cyclopropylmethyl-3,14β-dihydroxy-4,5α-epoxy-6α-[N-methyl-(3-furyl)propiolamido]morphinan tartrate]	0.002 mg/kg	
CCN(C(=O)Cc1ccc(Cl)c(Cl)c1)[C@@H]1CC[C@@]2(O)[C@H]3Cc4ccc(O)c5c4[C@@]2(CCN3CC2CC2)[C@H]1O5 [Compound 54, 17-cyclopropylmethyl-4,5α-epoxy-3,14β-dihydroxy-6β-(N-ethyl-3,4-dichlorophenylacetoamido)morphinan.cndot.hydrochloride]	0.72 mg/kg	
